From ChEMBL document CHEMBL1909046, “DrugMatrix in vitro pharmacology data”
Where a SMILES comes first, the peptide text is derived from it. Bridges are numbered along the chain shown (N, C = ends). [ ]: non-standard residue; d: D form. The star is where a group is joined. Ileψ(thiazoline)Cys = CC[C@H](C)[C@H](N)C1=N[C@H](C(=O)*)CS1; dOrn = NCCC[C@@H](N)C(=O)O

How the values were obtained:
[1] = molecular target: T1, Alpha-2A adrenergic receptor (Homo sapiens, UniProt P08913); assay type: cell membranes, Sf9, Membrane; conditions: sf9; also: in other assays of this panel Not Active means under 50% inhibition at 10 µM
T1 sequence (P08913 whole entry): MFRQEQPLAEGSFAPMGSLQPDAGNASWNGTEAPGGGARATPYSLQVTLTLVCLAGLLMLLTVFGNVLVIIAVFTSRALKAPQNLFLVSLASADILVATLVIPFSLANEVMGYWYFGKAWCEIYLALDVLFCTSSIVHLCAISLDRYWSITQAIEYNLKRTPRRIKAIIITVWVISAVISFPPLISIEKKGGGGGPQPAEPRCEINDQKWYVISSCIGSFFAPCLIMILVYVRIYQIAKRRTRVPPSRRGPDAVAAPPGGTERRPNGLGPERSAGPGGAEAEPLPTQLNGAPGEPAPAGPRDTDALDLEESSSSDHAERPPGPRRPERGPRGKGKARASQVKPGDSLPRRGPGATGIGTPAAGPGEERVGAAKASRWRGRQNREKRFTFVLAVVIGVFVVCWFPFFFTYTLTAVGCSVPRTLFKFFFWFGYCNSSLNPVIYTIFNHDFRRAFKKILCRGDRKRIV

[2] = molecular target: T2, 3-hydroxy-3-methylglutaryl-coenzyme A reductase (Homo sapiens, UniProt P04035); parameters: species or system Escherichia coli;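 also: enzyme inhibition assay of HMG-CoA reductase using radiolabeled [14C]HMG-CoA as substrate; in other assays of this panel Not Active means under 50% inhibition at 10 µM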
T2 sequence (P04035 whole entry): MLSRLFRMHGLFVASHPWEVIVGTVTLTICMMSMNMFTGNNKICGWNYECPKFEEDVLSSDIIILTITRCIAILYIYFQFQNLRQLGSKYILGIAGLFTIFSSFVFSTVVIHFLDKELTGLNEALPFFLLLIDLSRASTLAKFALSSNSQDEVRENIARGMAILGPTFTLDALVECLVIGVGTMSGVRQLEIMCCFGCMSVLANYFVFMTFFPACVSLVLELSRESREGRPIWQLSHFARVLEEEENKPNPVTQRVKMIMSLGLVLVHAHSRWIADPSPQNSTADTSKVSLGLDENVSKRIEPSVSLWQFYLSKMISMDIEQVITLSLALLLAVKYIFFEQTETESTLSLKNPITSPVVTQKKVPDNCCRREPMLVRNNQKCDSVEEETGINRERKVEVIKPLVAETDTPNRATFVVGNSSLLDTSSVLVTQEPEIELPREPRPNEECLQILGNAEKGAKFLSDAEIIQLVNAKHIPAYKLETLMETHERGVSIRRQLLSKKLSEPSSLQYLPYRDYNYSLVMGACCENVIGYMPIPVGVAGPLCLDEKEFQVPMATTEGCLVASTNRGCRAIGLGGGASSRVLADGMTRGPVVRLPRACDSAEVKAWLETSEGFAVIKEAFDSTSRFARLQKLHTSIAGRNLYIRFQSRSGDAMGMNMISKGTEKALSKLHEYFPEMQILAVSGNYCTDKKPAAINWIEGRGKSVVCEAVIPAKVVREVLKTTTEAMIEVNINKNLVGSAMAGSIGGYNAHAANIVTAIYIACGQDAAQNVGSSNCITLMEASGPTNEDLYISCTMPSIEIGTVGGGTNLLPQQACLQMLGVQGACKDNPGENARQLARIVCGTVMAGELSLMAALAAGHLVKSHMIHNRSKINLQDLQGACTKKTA

[3] = molecular target: T3, Muscarinic acetylcholine receptor M2 (Homo sapiens, UniProt P08172); assay type: cell membranes, CHO-K1, Membrane; conditions: cho-k1; also: in other assays of this panel Not Active means under 50% inhibition at 10 µM
T3 sequence (P08172 whole entry): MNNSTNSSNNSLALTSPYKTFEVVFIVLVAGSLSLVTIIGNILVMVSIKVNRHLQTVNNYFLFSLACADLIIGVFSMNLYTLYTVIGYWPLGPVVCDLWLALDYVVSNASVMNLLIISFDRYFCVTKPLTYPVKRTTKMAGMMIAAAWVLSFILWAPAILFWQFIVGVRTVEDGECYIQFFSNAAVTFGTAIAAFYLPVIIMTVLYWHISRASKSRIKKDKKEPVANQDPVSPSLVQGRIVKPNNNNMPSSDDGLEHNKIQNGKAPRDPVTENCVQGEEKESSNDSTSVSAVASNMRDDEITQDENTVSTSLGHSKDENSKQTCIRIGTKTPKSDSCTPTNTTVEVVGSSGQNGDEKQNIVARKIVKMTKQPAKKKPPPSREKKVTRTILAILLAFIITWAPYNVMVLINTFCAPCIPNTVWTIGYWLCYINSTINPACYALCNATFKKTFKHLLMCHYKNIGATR

[4] = molecular target: Tyrosine-protein kinase Fyn (Homo sapiens, UniProt P06241); test: biochemical; assay type: cell-based, Insect cells; conditions: insect cells;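 also: enzymatic inhibition of Fyn kinase activity measured with Poly(Glu:Tyr) as the phosphorylation substrate; in other assays of this panel Not Active means under 50% inhibition at 10 µM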
Sequence of Tyrosine-protein kinase Fyn (P06241 whole entry): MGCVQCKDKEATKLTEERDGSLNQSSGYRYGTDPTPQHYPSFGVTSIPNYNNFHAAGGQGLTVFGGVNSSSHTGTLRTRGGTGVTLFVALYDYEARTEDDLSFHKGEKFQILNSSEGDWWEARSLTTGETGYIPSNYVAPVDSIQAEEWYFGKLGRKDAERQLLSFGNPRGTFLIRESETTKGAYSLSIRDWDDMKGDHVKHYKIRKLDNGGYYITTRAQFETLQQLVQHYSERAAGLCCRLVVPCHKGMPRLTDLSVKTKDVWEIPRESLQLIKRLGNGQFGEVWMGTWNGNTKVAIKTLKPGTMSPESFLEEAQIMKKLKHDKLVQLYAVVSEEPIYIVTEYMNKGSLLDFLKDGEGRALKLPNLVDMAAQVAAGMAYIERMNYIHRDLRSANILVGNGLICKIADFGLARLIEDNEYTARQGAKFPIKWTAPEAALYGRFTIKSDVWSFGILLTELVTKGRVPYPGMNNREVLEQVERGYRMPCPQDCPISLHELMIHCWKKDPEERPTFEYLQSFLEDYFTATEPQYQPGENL

[5] = molecular target: 5-hydroxytryptamine receptor 6 (Homo sapiens, UniProt P50406); assay type: cell membranes, HeLa, Membrane; conditions: hela; also: in other assays of this panel Not Active means under 50% inhibition at 10 µM
Sequence of 5-hydroxytryptamine receptor 6 (P50406 whole entry): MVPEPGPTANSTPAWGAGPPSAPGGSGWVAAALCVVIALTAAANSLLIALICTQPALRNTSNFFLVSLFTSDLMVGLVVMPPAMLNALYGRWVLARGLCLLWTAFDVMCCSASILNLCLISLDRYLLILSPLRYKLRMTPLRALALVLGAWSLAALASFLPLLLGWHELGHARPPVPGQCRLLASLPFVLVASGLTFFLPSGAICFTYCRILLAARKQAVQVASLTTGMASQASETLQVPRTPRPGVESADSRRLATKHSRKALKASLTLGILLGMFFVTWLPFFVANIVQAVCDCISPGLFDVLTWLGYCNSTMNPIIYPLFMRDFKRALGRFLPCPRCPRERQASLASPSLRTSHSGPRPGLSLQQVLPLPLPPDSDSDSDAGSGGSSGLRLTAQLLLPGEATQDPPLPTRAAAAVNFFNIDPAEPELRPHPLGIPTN

[6] = molecular target: T4, 5-hydroxytryptamine receptor 2C (Homo sapiens, UniProt P28335); test: DRUGMATRIX: Serotonin (5-Hydroxytryptamine) 5-HT2C radioligand binding (ligand: [3H] Mesulergine); assay type: cell membranes, CHO-K1, Membrane; conditions: cho-k1; Not Active = under 50% inhibition at 10 µM
T4 sequence (P28335 whole entry): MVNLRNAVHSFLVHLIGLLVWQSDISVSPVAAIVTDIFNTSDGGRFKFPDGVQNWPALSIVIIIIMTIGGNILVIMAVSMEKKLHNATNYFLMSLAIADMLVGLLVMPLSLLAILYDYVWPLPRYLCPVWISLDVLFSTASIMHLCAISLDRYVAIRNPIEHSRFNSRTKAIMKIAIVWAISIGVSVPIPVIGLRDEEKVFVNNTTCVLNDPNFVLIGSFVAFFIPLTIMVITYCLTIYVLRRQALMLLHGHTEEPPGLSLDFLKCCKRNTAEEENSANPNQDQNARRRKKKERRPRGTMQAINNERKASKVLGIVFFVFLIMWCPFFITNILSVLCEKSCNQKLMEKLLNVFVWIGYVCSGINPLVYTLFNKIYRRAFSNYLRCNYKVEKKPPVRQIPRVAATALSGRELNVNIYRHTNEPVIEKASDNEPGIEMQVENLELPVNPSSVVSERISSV

Cytochrome P450 2E1 = Cytochrome P450 2E1 (Homo sapiens, UniProt P05181); conditions: bti-tn-5b1-4; also: in other assays of this panel Not Active means under 50% inhibition at 10 µM
Sequence of Cytochrome P450 2E1 (P05181 whole entry): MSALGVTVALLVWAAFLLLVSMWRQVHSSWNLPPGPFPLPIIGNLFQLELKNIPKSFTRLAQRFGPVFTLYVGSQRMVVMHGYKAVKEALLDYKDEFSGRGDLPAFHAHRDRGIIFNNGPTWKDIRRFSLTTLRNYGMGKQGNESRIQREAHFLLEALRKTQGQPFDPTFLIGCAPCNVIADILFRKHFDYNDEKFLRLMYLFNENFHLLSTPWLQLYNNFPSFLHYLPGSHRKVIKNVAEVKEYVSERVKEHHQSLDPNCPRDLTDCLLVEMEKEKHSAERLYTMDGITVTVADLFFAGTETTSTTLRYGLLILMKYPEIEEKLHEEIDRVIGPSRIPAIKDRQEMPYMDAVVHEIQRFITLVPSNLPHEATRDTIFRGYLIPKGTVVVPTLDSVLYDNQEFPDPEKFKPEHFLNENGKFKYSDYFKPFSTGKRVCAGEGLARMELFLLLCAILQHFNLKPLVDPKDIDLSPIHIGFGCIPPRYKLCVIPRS

[7] = molecular target: Aldo-keto reductase family 1 member B1 (Rattus norvegicus, UniProt P07943); assay type: tissue-based, Lens of camera-type eye
[8] = DRUGMATRIX: Calcium Channel Type L, Dihydropyridine radioligand binding (ligand: [3H] Nitrendipine); assay type: cell membranes, Rattus norvegicus, Wistar, Cerebral cortex, Membrane; conditions: Not Active = under 50% inhibition at 10 µM
Melanocortin receptor 4 = Melanocortin receptor 4 (Homo sapiens, UniProt P32245); assay type: cell membranes, Membrane; conditions: hek293; also: in other assays of this panel Not Active means under 50% inhibition at 10 µM
Sequence of Melanocortin receptor 4 (P32245 whole entry): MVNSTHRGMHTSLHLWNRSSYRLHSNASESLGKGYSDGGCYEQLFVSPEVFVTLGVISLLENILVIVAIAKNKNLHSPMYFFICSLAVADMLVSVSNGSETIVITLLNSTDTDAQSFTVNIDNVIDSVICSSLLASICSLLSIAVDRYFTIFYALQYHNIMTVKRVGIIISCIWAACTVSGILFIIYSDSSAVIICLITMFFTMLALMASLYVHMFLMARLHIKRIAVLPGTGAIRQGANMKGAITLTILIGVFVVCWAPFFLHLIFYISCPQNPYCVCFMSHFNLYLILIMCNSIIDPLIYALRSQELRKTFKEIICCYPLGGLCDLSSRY

Cytochrome P450 2C19 = Cytochrome P450 2C19 (Homo sapiens, UniProt P33261); conditions: bti-tn-5b1-4; also: in other assays of this panel Not Active means under 50% inhibition at 10 µM
Sequence of Cytochrome P450 2C19 (P33261 whole entry): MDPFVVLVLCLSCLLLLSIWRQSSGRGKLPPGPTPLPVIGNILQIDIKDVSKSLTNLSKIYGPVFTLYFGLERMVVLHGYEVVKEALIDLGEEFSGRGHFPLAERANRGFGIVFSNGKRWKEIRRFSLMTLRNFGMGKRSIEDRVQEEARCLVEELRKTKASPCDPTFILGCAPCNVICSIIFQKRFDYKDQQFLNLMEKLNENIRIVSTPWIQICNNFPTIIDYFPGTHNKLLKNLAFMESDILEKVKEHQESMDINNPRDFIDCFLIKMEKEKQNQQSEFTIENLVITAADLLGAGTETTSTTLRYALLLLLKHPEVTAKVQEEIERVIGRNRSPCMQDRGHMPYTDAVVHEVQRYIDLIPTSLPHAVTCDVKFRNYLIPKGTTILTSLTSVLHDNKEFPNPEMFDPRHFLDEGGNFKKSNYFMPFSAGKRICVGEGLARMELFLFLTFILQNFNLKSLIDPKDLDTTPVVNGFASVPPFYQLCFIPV

O=c1[nH]cc(F)c(=O)[nH]1 [FLUOROURACIL]
Not Active: IC50 [1] | IC50 [2] | IC50 [3] | IC50 [4] | IC50 [5] | IC50 [6] | IC50 (Cytochrome P450 2E1) | Ki (Cytochrome P450 2E1) | IC50 [7] | IC50 [8] | Ki [8] | IC50 (Melanocortin receptor 4) | IC50 (Cytochrome P450 2C19) | Ki (Cytochrome P450 2C19)

CC(C)(Oc1ccc(CCNC(=O)c2ccc(Cl)cc2)cc1)C(=O)O [BEZAFIBRATE]
Not Active: IC50 [1] | IC50 [2] | IC50 [3] | IC50 [4] | IC50 [5] | IC50 [6] | IC50 (Cytochrome P450 2E1) | Ki (Cytochrome P450 2E1) | IC50 [7] | IC50 [8] | Ki [8] | IC50 (Melanocortin receptor 4) | IC50 (Cytochrome P450 2C19) | Ki (Cytochrome P450 2C19)

CC[C@H](C)[C@H](N)C1=N[C@H](C(=O)N[C@@H](CC(C)C)C(=O)N[C@H](CCC(=O)O)C(=O)N[C@H](C(=O)N[C@H]2CCCCNC(=O)[C@H](CC(N)=O)NC(=O)[C@@H](CC(=O)O)NC(=O)[C@H](Cc3cnc[nH]3)NC(=O)[C@@H](Cc3ccccc3)NC(=O)[C@H]([C@@H](C)CC)NC(=O)[C@@H](CCCN)NC2=O)[C@@H](C)CC)CS1 [BACITRACIN] ({Ileψ(thiazoline)Cys}-L[dE]IK[dOrn]I[dF]H[dD]N; lactam 4-C)
Not Active: IC50 [1] | IC50 [2] | IC50 [3] | IC50 [4] | IC50 [5] | IC50 [6] | IC50 (Cytochrome P450 2E1) | Ki (Cytochrome P450 2E1) | IC50 [7] | IC50 [8] | Ki [8] | IC50 (Melanocortin receptor 4) | IC50 (Cytochrome P450 2C19) | Ki (Cytochrome P450 2C19)

CC1(C)S[C@@H]2[C@H](NC(=O)[C@H](NC(=O)N3CCNC3=O)c3ccccc3)C(=O)N2[C@H]1C(=O)O [AZLOCILLIN]
Not Active: IC50 [1] | IC50 [2] | IC50 [3] | IC50 [4] | IC50 [5] | IC50 [6] | IC50 (Cytochrome P450 2E1) | Ki (Cytochrome P450 2E1) | IC50 [7] | IC50 [8] | Ki [8] | IC50 (Melanocortin receptor 4) | IC50 (Cytochrome P450 2C19) | Ki (Cytochrome P450 2C19)

N=C(N)NCCCCNC(=N)N.O=S(=O)(O)O [ARCAINE SULFATE]
Not Active: IC50 [1] | IC50 [2] | IC50 [3] | IC50 [4] | IC50 [5] | IC50 [6] | IC50 (Cytochrome P450 2E1) | Ki (Cytochrome P450 2E1) | IC50 [7] | IC50 [8] | Ki [8] | IC50 (Melanocortin receptor 4) | IC50 (Cytochrome P450 2C19) | Ki (Cytochrome P450 2C19)

Oc1cccc2cccnc12 [OXYQUINOLINE]
Not Active: IC50 [1] | IC50 [2] | IC50 [3] | IC50 [4] | IC50 [5] | IC50 [6] | IC50 (Cytochrome P450 2E1) | Ki (Cytochrome P450 2E1) | IC50 [7] | IC50 [8] | Ki [8] | IC50 (Melanocortin receptor 4) | IC50 (Cytochrome P450 2C19) | Ki (Cytochrome P450 2C19)

CN1CCC[C@H]1c1cccnc1 [NICOTINE]
Not Active: IC50 [1] | IC50 [2] | IC50 [3] | IC50 [4] | IC50 [5] | IC50 [6] | IC50 (Cytochrome P450 2E1) | Ki (Cytochrome P450 2E1) | IC50 [7] | IC50 [8] | Ki [8] | IC50 (Melanocortin receptor 4) | IC50 (Cytochrome P450 2C19) | Ki (Cytochrome P450 2C19)

NCC[C@H](O)C(=O)N[C@@H]1C[C@H](N)[C@@H](O[C@H]2O[C@H](CN)[C@@H](O)[C@H](O)[C@H]2O)[C@H](O)[C@H]1O[C@H]1O[C@H](CO)[C@@H](O)[C@H](N)[C@H]1O [AMIKACIN]
Not Active: IC50 [1] | IC50 [2] | IC50 [3] | IC50 [4] | IC50 [5] | IC50 [6] | IC50 (Cytochrome P450 2E1) | Ki (Cytochrome P450 2E1) | IC50 [7] | IC50 [8] | Ki [8] | IC50 (Melanocortin receptor 4) | IC50 (Cytochrome P450 2C19) | Ki (Cytochrome P450 2C19)

C/C=C1\[C@H]2C=C(C)C[C@]1(N)c1ccc(=O)[nH]c1C2 [HUPERZINE A]
Not Active: IC50 [1] | IC50 [2] | IC50 [3] | IC50 [4] | IC50 [5] | IC50 [6] | IC50 (Cytochrome P450 2E1) | Ki (Cytochrome P450 2E1) | IC50 [7] | IC50 [8] | Ki [8] | IC50 (Melanocortin receptor 4) | IC50 (Cytochrome P450 2C19) | Ki (Cytochrome P450 2C19)
